Literature values in publication PMC3201700 (Journal of agricultural and food chemistry, 2011).
Like-named read-outs stand apart in the source and are kept apart here.

Columns and labels:
MRP1 and MRP2 = conditions: SFN compared with ERN
[1] = rats

Row | SMILES | Induction of MRP1 and MRP2 (phase III detoxification) (MRP1 and MRP2) | Recovery of the dose in the urine after 24 h ([1]; by gavage) [%] | Recovery of the dose in the urine after 24 h ([1]; in the diet) [%]
1 | C[S+]([O-])CCCCN=C=S (stereo not drawn) [SFN, sulforaphane] | substantially more potent than ERN |  | 
2 | C[S+]([O-])CCCC/C(=N\OS(=O)(=O)O)S[C@@H]1O[C@H](CO)[C@@H](O)[C@H](O)[C@H]1O (stereo partly drawn) [glucoraphanin] |  | 27.6 | 23.8
